Assay results taken from ChEMBL document CHEMBL1141900, “Synthesis and antibacterial activity of C2-fluoro, C6-carbamate ketolides, and their C9-oximes” (2005).

Assays:
Mus musculus [1] = assay: Effective dose required to inhibit Staphylococcus aureus in mouse was determined after peroral administration of the compound; (8.1- 14); format: functional; settings: po
Mus musculus [2] = assay: Effective dose required to inhibit Staphylococcus aureus in mouse was determined after sub cutaneous administration (0.5-1.4); format: functional

Compound: CC[C@H]1OC(=O)C(C)C(=O)[C@H](C)[C@@H](O[C@@H]2O[C@H](C)C[C@H](N(C)C)[C@H]2O)[C@](C)(OC(=O)NC/C=C/c2ccc(-c3ncccn3)cc2)C[C@@H](C)C(=O)[C@H](C)[C@H]2NC(=O)O[C@@]21C (some centres not stated)
- ED50 (Mus musculus [1]): 10 mg/kg
- ED50 (Mus musculus [2]): 1 mg/kg
